The term IC50 denotes the concentration that inhibits the measured activity by half.

The source made the active and inactive calls. The rule behind the calls is not given here.

Assay [1] addresses Replicase polyprotein 1ab (Severe acute respiratory syndrome coronavirus 2, UniProt P0DTD1). Kind of assay: Inhibition of recombinant SARS-CoV-2 Main protease using ALNDFSNSGSDVLYQPPQTSITSAVLQ/SGFRKMAFPS-NH2 as substrate preincubated for 45 to 75 mins followed by substrate addition measured after 6 mins by SPE-MS inhibition assay.
Assay [2] concerns the target Replicase polyprotein 1ab (Severe acute respiratory syndrome coronavirus 2) (UniProt P0DTD1). In words: Inhibition of recombinant SARS-CoV-2 Main protease at Cys145 residue by non-covalent binding incubated for 45 mins by MS analysis.
Assay [3] shares this target. In words: Inhibition of recombinant SARS-CoV-2 Main protease at Cys145 residue by covalent modification at 33 uM incubated for 45 mins by MS analysis.
The target is the same in assay [4]. In words: Inhibition of recombinant SARS-CoV-2 Main protease at Cys145 residue by covalent modification at 10 uM incubated for 45 mins by SPE-MS analysis.

For the compound `CC1(C)[C@H](C(=O)OCOc2ccccc2)N2C(=O)[C@@H](NC(=O)COc3ccccc3)[C@H]2S1(=O)=O`, the IC50 in assay [1] is 6.6 µM. With `CC1(C)[C@H](C(=O)OCc2ccccc2)N2C(=O)[C@@H](NC(=O)COc3ccccc3)C[C@H]2S1(=O)=O`, the inhibition result in assay [2] was “Active”. As for `C#CCOC(=O)[C@@H]1N2C(=O)[C@@H](NC(=O)COc3ccccc3)[C@H]2S(=O)(=O)C1(C)C`, the inhibition entry in assay [3] was “Active”. Regarding `CC1(C)[C@H](C(=O)OCc2ccccc2)N2C(=O)[C@@H](NC(=O)COc3ccccc3)[C@H]2S1(=O)=O`, the inhibition result in assay [4] was “Active”.
